# Measurements: patent publication US20050222173A1, “Triazolopyrimidines” (priority 2002, published 2005)
# What was measured:
# [1] = system: Venturia inaequalis; experiment: Venturia test (apple)/protective; format: in vivo; conditions: protective, application rate 100 g/ha, evaluation 10 days after inoculation; for pest or weed control at 100 g/ha: Venturia inaequalis, 240 h, read-out: Efficacy in %
# Protocol: Venturia Test (Apple)/Protective [table] To produce a suitable preparation of active compound, 1 part by weight of active compound is mixed with the stated amounts of solvent and emulsifier, and the concentrate is diluted with water to the desired concentration. To test for protective activity, young plants are sprayed with the preparation of active compound at the stated application rate. […] The plants are then placed in a greenhouse at about 21° C. and a relative atmospheric humidity of about […].
# [2] = system: Podosphaera leucotricha; experiment: Podosphaera test (apple)/protective; format: in vivo; conditions: protective, evaluation 10 days after inoculation
# Protocol: Podosphaera Test (Apple)/Protective [table] […] To test for protective activity, young plants are sprayed with the preparation of active compound at the stated application rate. After the spray coating has dried on, the plants are inoculated with an aqueous spore suspension of the apple mildew pathogen Podosphaera leucotricha. The plants are then placed in a greenhouse at about 23° C. and a relative atmospheric humidity of about 70%.
# [3] = logP determination by HPLC (EEC Directive 79/831 Annex V. A8); conditions: HPLC, gradient method, acetonitrile/0.1% aqueous phosphoric acid
# [4] = Podosphaera leucotricha, 240 h, application rate 100 g/ha, read-out: Efficacy in %
Compound,log.P [3],further results
CC(C)CNc1c(-c2c(F)cccc2Cl)c(Cl)nc2nc(Cl)nn12 [drawing 63],,pest or weed control at 100 g/ha [1]: 91%
CC(C)CNc1c(-c2c(F)cccc2Cl)c(Cl)nc2nc(Cl)nn12 [drawing 45],,"pest or weed control at 100 g/ha [2, 4]: 100%"
Fc1cccc(Cl)c1-c1c(Cl)nc2nc(Cl)nn2c1N1CCCC1 [drawing 61],,pest or weed control at 100 g/ha [1]: 85%
C[C@H](Nc1c(-c2c(F)cc(F)cc2F)c(Cl)nc2nc(Br)nn12)C(F)(F)F [drawing 56],,pest or weed control at 100 g/ha [1]: 99%
COc1nc2nc(Cl)c(-c3c(F)cc(F)cc3OC)c(NC(C)C(F)(F)F)n2n1 (stereo not shown) [drawing 49],,"pest or weed control at 100 g/ha [2, 4]: 83%"
C[C@H](Nc1c(-c2c(F)cc(F)cc2F)c(Cl)nc2nc(Br)nn12)C(F)(F)F [drawing 38],,"pest or weed control at 100 g/ha [2, 4]: 100%"
Fc1ccc(-c2c(Cl)nc3nc(Cl)nn3c2N[C@@H](Cl)C(F)(F)F)c(F)c1 [drawing 42],,"pest or weed control at 100 g/ha [2, 4]: 100%"
CCC(C)CNc1c(-c2c(F)cc(F)cc2F)c(Cl)nc2nc(Br)nn12 (stereo not shown) [drawing 54],,pest or weed control at 100 g/ha [1]: 80%
C=C(C)CN(C)c1c(-c2c(F)cccc2Cl)c(Cl)nc2nc(Cl)nn12 [drawing 66],,Efficacy in % [1]: 84%
CCC(C)CNc1c(-c2c(F)cc(F)cc2F)c(Cl)nc2nc(Cl)nn12 (stereo not shown) [drawing 53],,pest or weed control at 100 g/ha [1]: 83%
C=CCN(CC)c1c(-c2c(F)cccc2Cl)c(Cl)nc2nc(Cl)nn12 [drawing 62],,pest or weed control at 100 g/ha [1]: 96%
Clc1nc2nc(Cl)c(-c3ccccc3Cl)c(NCC3CC3)n2n1 [drawing 55],,pest or weed control at 100 g/ha [1]: 96%
CC1CCCN(c2c(-c3c(F)cc(F)cc3F)c(Cl)nc3nc(Cl)nn23)C1 (stereo not shown) [drawing 39],,"pest or weed control at 199 g/ha ([2]; Podosphaera leucotricha, 240 h, application rate 199 g/ha, read-out: Efficacy in %): 94%"
CC(C)Nc1c(-c2ccccc2Cl)c(Cl)nc2nc(Br)nn12 [drawing 52],,pest or weed control at 100 g/ha [1]: 98%
COCCN(C)c1c(-c2c(F)cccc2Cl)c(Cl)nc2nc(Cl)nn12 [drawing 65],,pest or weed control at 100 g/ha [1]: 96%
Fc1cccc(Cl)c1-c1c(Cl)nc2nc(Cl)nn2c1NCC1CC1 [drawing 46],,"pest or weed control at 100 g/ha [2, 4]: 100%"
C[C@@H](Nc1c(-c2c(F)cc(F)cc2F)c(Cl)nc2nc(Cl)nn12)C(F)(F)F [drawing 51],,pest or weed control at 100 g/ha [1]: 100%
C=CCN(CC)c1c(-c2c(F)cccc2Cl)c(Cl)nc2nc(Cl)nn12 [drawing 44],,"pest or weed control at 100 g/ha [2, 4]: 95%"
CC(C)CNc1c(-c2ccc(F)cc2F)c(Cl)nc2nc(Cl)nn12 [drawing 40],,"pest or weed control at 100 g/ha [2, 4]: 100%"
COCCN(C)c1c(-c2c(F)cccc2Cl)c(Cl)nc2nc(Cl)nn12 [drawing 47],,"pest or weed control at 100 g/ha [2, 4]: 100%"
Clc1nc2nc(Cl)c(-c3ccccc3Cl)c(N3CCCC3)n2n1 [Example 30],3.59,
CN(C)c1c(-c2c(F)cc(F)cc2F)c(Cl)nc2nc(Br)nn12 [Example 59],3.14,
Clc1nc2nc(Cl)c(-c3ccccc3Cl)c(NC3CCCC3)n2n1 [Example 34],4.03,
Clc1nc2nc(Cl)c(-c3ccccc3Cl)c(NCC3CC3)n2n1 [Example 19],3.55,

Compound,log.P [3],further results
CCN(CC)c1c(-c2c(F)cc(F)cc2F)c(Cl)nc2nc(Br)nn12 [Example 53],3.9,
Clc1nc2nc(Cl)c(-c3ccccc3Cl)c(N3CCSCC3)n2n1 [Example 38],3.76,
CC(C)(C)Nc1c(-c2c(F)cc(F)cc2F)c(Cl)nc2nc(Cl)nn12 [Example 25],3.9,
Clc1nc2nc(Cl)c(-c3ccccc3Cl)c(NC3CCCCC3)n2n1 [Example 42],4.32,
Fc1cc(F)c(-c2c(Cl)nc3nc(Cl)nn3c2N2CCC(C(F)(F)F)CC2)c(F)c1 [Example 46],5,
Clc1nc2nc(Cl)c(-c3ccccc3Cl)c(NCC3CC3)n2n1 [drawing 37],,"pest or weed control at 100 g/ha [2, 4]: 97%"
CC1CN(c2c(-c3ccccc3Cl)c(Cl)nc3nc(Cl)nn23)CC(C)O1 (stereo not shown) [Example 28],3.81,
COCCNc1c(-c2ccccc2Cl)c(Cl)nc2nc(Cl)nn12 [Example 35],2.91,
Fc1cccc(Cl)c1-c1c(Cl)nc2nc(Cl)nn2c1N1CCCC1 [drawing 43],,"pest or weed control at 100 g/ha [2, 4]: 93%"
Clc1nc2nc(Cl)c(-c3ccccc3Cl)c(NC3CC3)n2n1 [Example 37],3.18,
CCNc1c(-c2ccccc2Cl)c(Cl)nc2nc(Cl)nn12 [Example 29],3.07,
C[C@H](Nc1c(-c2c(F)cccc2Cl)c(Cl)nc2nc(Cl)nn12)C(F)(F)F [drawing 41],,"pest or weed control at 100 g/ha [2, 4]: 100%"
CCC(C)CNc1c(-c2c(F)cc(F)cc2F)c(Cl)nc2nc(Br)nn12 (stereo not shown) [drawing 36],,"pest or weed control at 100 g/ha [2, 4]: 94%"
CN(C)c1c(-c2ccccc2Cl)c(Cl)nc2nc(Cl)nn12 [Example 26],3.18,
C[C@@H](Nc1c(-c2c(F)cc(F)cc2F)c(Cl)nc2nc(Cl)nn12)C(F)(F)F [drawing 33],,"pest or weed control at 100 g/ha [2, 4]: 100%"
C[C@@H](Nc1c(-c2ccccc2Cl)c(Cl)nc2nc(Cl)nn12)C(F)(F)F [drawing 32],,"pest or weed control at 100 g/ha [2, 4]: 100%"
C=C(C)CN(C)c1c(-c2c(F)cccc2Cl)c(Cl)nc2nc(Cl)nn12 [drawing 48],,Efficacy in % ([2]; application rate 100 g/ha): 100%
CCC(C)CNc1c(-c2c(F)cc(F)cc2F)c(Cl)nc2nc(Cl)nn12 (stereo not shown) [drawing 35],,"pest or weed control at 100 g/ha [2, 4]: 100%"
CC(Nc1c(-c2c(F)cc(F)cc2F)c(Cl)nc2nc(Cl)nn12)C1CCCCC1 (stereo not shown) [Example 23],4.87,
CC(C)Nc1c(-c2ccccc2Cl)c(Cl)nc2nc(Br)nn12 [drawing 34],,"pest or weed control at 100 g/ha [2, 4]: 87%"
CCNc1c(-c2c(F)cc(F)cc2F)c(Cl)nc2nc(Cl)nn12 [Example 7],3.07,
Fc1cc(F)c(-c2c(Cl)nc3nc(Cl)nn3c2NN2CCOCC2)c(F)c1 [Example 16],2.74,
CC(Nc1c(-c2c(F)cc(F)cc2F)c(Cl)nc2nc(N(C)C)nn12)C(F)(F)F (stereo not shown) [Example 3],3.52,

# Now from value to molecule, other results behind:
log.P [3],Compound,further results
1.51,CN(C)CCN(C)c1c(-c2ccc(F)cc2F)c(Cl)nc2nc(Cl)nn12 [Example 110],
3.28,CC(C)(Nc1c(-c2c(F)cc(F)cc2F)c(Cl)nc2nc(Cl)nn12)C(F)(F)F [Example 66],
4.09,CC(C)C(C)Nc1c(-c2c(F)cccc2Cl)c(Cl)nc2nc(Cl)nn12 (stereo not shown) [Example 172],
3.67,CC(C)CN(N)c1c(-c2c(F)cc(F)cc2F)c(Cl)nc2nc(Br)nn12 [Example 65],
3.63,CCC(C)Nc1c(-c2ccc(F)cc2F)c(Cl)nc2nc(Cl)nn12 (stereo not shown) [Example 102],
4.19,CC1=CCCN(c2c(-c3c(F)cc(F)cc3F)c(Cl)nc3nc(Br)nn23)C1 [Example 72],
3.54,Fc1cccc(Cl)c1-c1c(Cl)nc2nc(Cl)nn2c1N1CCCC1 [Example 134],
4.01,CC(C)C(C)Nc1c(-c2c(F)cc(F)cc2F)c(Cl)nc2nc(Cl)nn12 (stereo not shown) [Example 171],
4.48,CCCN(CC1CC1)c1c(-c2ccc(F)cc2F)c(Cl)nc2nc(Cl)nn12 [Example 126],
3.02,Fc1cccc(Cl)c1-c1c(Cl)nc2nc(Cl)nn2c1N1CCOCC1 [Example 132],
4.16,CC(C)C(C)Nc1c(-c2ccccc2Cl)c(Cl)nc2nc(Cl)nn12 (stereo not shown) [Example 175],
4.63,CCC1=CCN(c2c(-c3c(F)cc(F)cc3F)c(Cl)nc3nc(Cl)nn23)CC1 [Example 91],
3.19,Fc1ccc(-c2c(Cl)nc3nc(Cl)nn3c2NCC(F)(F)F)c(F)c1 [Example 106],
3.98,CCN(Cc1ccco1)c1c(-c2ccc(F)cc2F)c(Cl)nc2nc(Cl)nn12 [Example 120],
4.4,C=C(C)CN(CC)c1c(-c2c(F)cc(F)cc2F)c(Cl)nc2nc(Cl)nn12 [Example 78],
3.62,CCN(CCOC)c1c(-c2c(F)cc(F)cc2F)c(Cl)nc2nc(Br)nn12 [Example 75],
4.29,CCCN(CC1CCCO1)c1c(-c2ccc(F)cc2F)c(Cl)nc2nc(Cl)nn12 (stereo not shown) [Example 127],
2.71,CN1CCN(c2c(-c3c(F)cc(F)cc3F)c(Cl)nc3nc(Cl)nn23)CC1 [Example 84],
3.79,CCC(C)Nc1c(-c2ccccc2Cl)c(Cl)nc2nc(Cl)nn12 (stereo not shown) [Example 70],
3.01,Fc1ccc(-c2c(Cl)nc3nc(Cl)nn3c2NC2CC2)c(F)c1 [Example 105],
3.73,Fc1cccc(Cl)c1-c1c(Cl)nc2nc(Cl)nn2c1N1CCSCC1 [Example 131],
4.3,C=C(C)CN(CC)c1c(-c2ccc(F)cc2F)c(Cl)nc2nc(Cl)nn12 [Example 118],
4.5,CCCCN(CC)c1c(-c2ccc(F)cc2F)c(Cl)nc2nc(Cl)nn12 [Example 124],
3.28,Fc1cc(F)c(-c2c(Cl)nc3nc(Cl)nn3c2N2CCCCC2C(F)(F)F)c(F)c1 (stereo not shown) [Example 67],
4.22,FC(F)(F)C1CCN(c2c(-c3ccccc3Cl)c(Cl)nc3nc(Cl)nn23)CC1 [Example 81],
4.06,Fc1cc(F)c(-c2c(Cl)nc3nc(Cl)nn3c2N2CCCCC2)c(F)c1 [Example 89],
3.49,Fc1cccc(Cl)c1-c1c(Cl)nc2nc(Cl)nn2c1NCC1CC1 [Example 143],
3.72,Fc1cc(F)c(-c2c(Cl)nc3nc(Br)nn3c2N2CCSCC2)c(F)c1 [Example 61],
3.61,CC(C)CNc1c(-c2ccc(F)cc2F)c(Cl)nc2nc(Cl)nn12 [Example 101],
